Reference: article PMC7156458, “Synthetic biology based construction of biological activity-related library of fungal decalin-containing diterpenoid pyrones” (Nature Communications, 2020)

Molecular target: Aβ42 (Homo sapiens, UniProt P05067)
Experiment: Th-T (thioflavin-T) assay of Aβ42 aggregation
Assay type: biochemical
Details: for Th-T assay plate reading, mean of three wells (Supplementary Fig. 47): source data, Ab alone and No Ab as controls

Chain of Aβ42 (P05067 672-713): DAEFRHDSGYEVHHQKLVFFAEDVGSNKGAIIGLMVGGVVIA

## C=C1CC[C@@H]2[C@](C)(CC[C@H]3O[C@H](C=C(C)C)C[C@@]23C)[C@@H]1Cc1c(O)c(C)c(C)oc1=O [Compound 10, higginsianin A]
Aβ42 aggregation time course, reading M117
  Th-T fluorescence, mean of three wells: 3.027
Aβ42 aggregation time course, reading M118
  Th-T fluorescence, mean of three wells: 3.005
Aβ42 aggregation time course, reading M119
  Th-T fluorescence, mean of three wells: 3.036
Aβ42 aggregation time course, reading M120
  Th-T fluorescence, mean of three wells: 3.024
Aβ42 aggregation time course, reading M121
  Th-T fluorescence, mean of three wells: 3.009
Aβ42 aggregation time course, reading M122
  Th-T fluorescence, mean of three wells: 2.9814
Aβ42 aggregation time course, reading M123
  Th-T fluorescence, mean of three wells: 3.007
Aβ42 aggregation time course, reading M124
  Th-T fluorescence, mean of three wells: 3.01
Aβ42 aggregation time course, reading M125
  Th-T fluorescence, mean of three wells: 2.994
Aβ42 aggregation time course, reading M126
  Th-T fluorescence, mean of three wells: 2.985
Aβ42 aggregation time course, reading M127
  Th-T fluorescence, mean of three wells: 3.018
Aβ42 aggregation time course, reading M128
  Th-T fluorescence, mean of three wells: 2.986
Aβ42 aggregation time course, reading M129
  Th-T fluorescence, mean of three wells: 2.997
Aβ42 aggregation time course, reading M130
  Th-T fluorescence, mean of three wells: 3.004
Aβ42 aggregation time course, reading M131
  Th-T fluorescence, mean of three wells: 2.988
Aβ42 aggregation time course, reading M132
  Th-T fluorescence, mean of three wells: 2.974
Aβ42 aggregation time course, reading M133
  Th-T fluorescence, mean of three wells: 2.995
Aβ42 aggregation time course, reading M134
  Th-T fluorescence, mean of three wells: 2.998
Aβ42 aggregation time course, reading M135
  Th-T fluorescence, mean of three wells: 3.001
Aβ42 aggregation time course, reading M136
  Th-T fluorescence, mean of three wells: 2.985
Supplementary Fig. 47, reading M137
  Th-T fluorescence, mean of three wells: 2.995
Supplementary Fig. 47, reading M138
  Th-T fluorescence, mean of three wells: 2.975
Supplementary Fig. 47, reading M139
  Th-T fluorescence, mean of three wells: 2.9735
Supplementary Fig. 47, reading M140
  Th-T fluorescence, mean of three wells: 2.981
Supplementary Fig. 47, reading M141
  Th-T fluorescence, mean of three wells: 2.969
Supplementary Fig. 47, reading M142
  Th-T fluorescence, mean of three wells: 2.937
Supplementary Fig. 47, reading M143
  Th-T fluorescence, mean of three wells: 3.01
Supplementary Fig. 47, reading M144
  Th-T fluorescence, mean of three wells: 2.949
Supplementary Fig. 47, reading M145
  Th-T fluorescence, mean of three wells: 2.953
Supplementary Fig. 47 source data, measurement M37 of time course
  Th-T fluorescence, mean of three wells: 3.026
Supplementary Fig. 47 source data, measurement M38 of time course
  Th-T fluorescence, mean of three wells: 3.058
Supplementary Fig. 47 source data, measurement M39 of time course
  Th-T fluorescence, mean of three wells: 3.066
Supplementary Fig. 47 source data, measurement M40 of time course
  Th-T fluorescence, mean of three wells: 3.0688
Supplementary Fig. 47 source data, measurement M41 of time course
  Th-T fluorescence, mean of three wells: 3.079
Supplementary Fig. 47 source data, measurement M42 of time course
  Th-T fluorescence, mean of three wells: 3.094
Supplementary Fig. 47 source data, measurement M43 of time course
  Th-T fluorescence, mean of three wells: 3.089
Supplementary Fig. 47 source data, measurement M44 of time course
  Th-T fluorescence, mean of three wells: 3.087
Supplementary Fig. 47 source data, measurement M45 of time course
  Th-T fluorescence, mean of three wells: 3.107
Supplementary Fig. 47 source data, measurement M46 of time course
  Th-T fluorescence, mean of three wells: 3.104
Supplementary Fig. 47 source data, measurement M47 of time course
  Th-T fluorescence, mean of three wells: 3.097
Supplementary Fig. 47 source data, measurement M48 of time course
  Th-T fluorescence, mean of three wells: 3.099
Supplementary Fig. 47 source data, measurement M49 of time course
  Th-T fluorescence, mean of three wells: 3.124
Supplementary Fig. 47 source data, measurement M50 of time course
  Th-T fluorescence, mean of three wells: 3.143
Supplementary Fig. 47 source data, measurement M51 of time course
  Th-T fluorescence, mean of three wells: 3.109
Supplementary Fig. 47 source data, measurement M52 of time course
  Th-T fluorescence, mean of three wells: 3.12
Supplementary Fig. 47 source data, measurement M53 of time course
  Th-T fluorescence, mean of three wells: 3.131
Supplementary Fig. 47 source data, measurement M54 of time course
  Th-T fluorescence, mean of three wells: 3.122
Supplementary Fig. 47 source data, measurement M55 of time course
  Th-T fluorescence, mean of three wells: 3.1161
Supplementary Fig. 47 source data, measurement M56 of time course
  Th-T fluorescence, mean of three wells: 3.112
Measurement M1
  Th-T assay plate reading, mean of three wells (Supplementary Fig. 47): 0.2982
Measurement M2
  Th-T assay plate reading, mean of three wells (Supplementary Fig. 47): 0.2966
Measurement M3
  Th-T assay plate reading, mean of three wells (Supplementary Fig. 47): 0.3112
Measurement M4
  Th-T assay plate reading, mean of three wells (Supplementary Fig. 47): 0.3288
Measurement M5
  Th-T assay plate reading, mean of three wells (Supplementary Fig. 47): 0.3791
Measurement M6
  Th-T assay plate reading, mean of three wells (Supplementary Fig. 47): 0.4184
Measurement M7
  Th-T assay plate reading, mean of three wells (Supplementary Fig. 47): 0.4946
Measurement M8
  Th-T assay plate reading, mean of three wells (Supplementary Fig. 47): 0.5732
Measurement M9
  Th-T assay plate reading, mean of three wells (Supplementary Fig. 47): 0.6554
Measurement M10
  Th-T assay plate reading, mean of three wells (Supplementary Fig. 47): 0.6998
Measurement M11
  Th-T assay plate reading, mean of three wells (Supplementary Fig. 47): 0.7388
Measurement M12
  Th-T assay plate reading, mean of three wells (Supplementary Fig. 47): 0.7839
Measurement M13
  Th-T assay plate reading, mean of three wells (Supplementary Fig. 47): 0.8524
Measurement M14
  Th-T assay plate reading, mean of three wells (Supplementary Fig. 47): 1.025
Measurement M15
  Th-T assay plate reading, mean of three wells (Supplementary Fig. 47): 1.367
Measurement M16
  Th-T assay plate reading, mean of three wells (Supplementary Fig. 47): 1.777
Reading M17, Supplementary Fig. 47 source data
  Th-T fluorescence, mean of three wells: 2.114
Reading M18, Supplementary Fig. 47 source data
  Th-T fluorescence, mean of three wells: 2.387
Reading M19, Supplementary Fig. 47 source data
  Th-T fluorescence, mean of three wells: 2.598
Reading M20, Supplementary Fig. 47 source data
  Th-T fluorescence, mean of three wells: 2.677
Reading M21, Supplementary Fig. 47 source data
  Th-T fluorescence, mean of three wells: 2.685
Reading M22, Supplementary Fig. 47 source data
  Th-T fluorescence, mean of three wells: 2.669
Reading M23, Supplementary Fig. 47 source data
  Th-T fluorescence, mean of three wells: 2.723
Reading M24, Supplementary Fig. 47 source data
  Th-T fluorescence, mean of three wells: 2.7479
Reading M25, Supplementary Fig. 47 source data
  Th-T fluorescence, mean of three wells: 2.777
Reading M26, Supplementary Fig. 47 source data
  Th-T fluorescence, mean of three wells: 2.823
Reading M27, Supplementary Fig. 47 source data
  Th-T fluorescence, mean of three wells: 2.858
Reading M28, Supplementary Fig. 47 source data
  Th-T fluorescence, mean of three wells: 2.868
Reading M29, Supplementary Fig. 47 source data
  Th-T fluorescence, mean of three wells: 2.914
Reading M30, Supplementary Fig. 47 source data
  Th-T fluorescence, mean of three wells: 2.924
Reading M31, Supplementary Fig. 47 source data
  Th-T fluorescence, mean of three wells: 2.961
Reading M32, Supplementary Fig. 47 source data
  Th-T fluorescence, mean of three wells: 2.958
Reading M33, Supplementary Fig. 47 source data
  Th-T fluorescence, mean of three wells: 2.966
Reading M34, Supplementary Fig. 47 source data
  Th-T fluorescence, mean of three wells: 3.0036
Reading M35, Supplementary Fig. 47 source data
  Th-T fluorescence, mean of three wells: 3.001
Reading M36, Supplementary Fig. 47 source data
  Th-T fluorescence, mean of three wells: 3.031
Time course, reading M57
  Th-T fluorescence, mean of three wells: 3.145
Time course, reading M58
  Th-T fluorescence, mean of three wells: 3.098
Time course, reading M59
  Th-T fluorescence, mean of three wells: 3.0965
Time course, reading M60
  Th-T fluorescence, mean of three wells: 3.12
Time course, reading M61
  Th-T fluorescence, mean of three wells: 3.114
Time course, reading M62
  Th-T fluorescence, mean of three wells: 3.124
Time course, reading M63
  Th-T fluorescence, mean of three wells: 3.121
Time course, reading M64
  Th-T fluorescence, mean of three wells: 3.089
Time course, reading M65
  Th-T fluorescence, mean of three wells: 3.1417
Time course, reading M66
  Th-T fluorescence, mean of three wells: 3.124
Time course, reading M67
  Th-T fluorescence, mean of three wells: 3.125
time-course reading M97, Supplementary Fig. 47 source data
  Th-T fluorescence, mean of three wells: 3.037
time-course reading M98, Supplementary Fig. 47 source data
  Th-T fluorescence, mean of three wells: 3.037
time-course reading M99, Supplementary Fig. 47 source data
  Th-T fluorescence, mean of three wells: 3.05
time-course reading M100, Supplementary Fig. 47 source data
  Th-T fluorescence, mean of three wells: 3.074
time-course reading M101, Supplementary Fig. 47 source data
  Th-T fluorescence, mean of three wells: 3.025
time-course reading M102, Supplementary Fig. 47 source data
  Th-T fluorescence, mean of three wells: 3.036
time-course reading M103, Supplementary Fig. 47 source data
  Th-T fluorescence, mean of three wells: 3.034
time-course reading M104, Supplementary Fig. 47 source data
  Th-T fluorescence, mean of three wells: 3.0181
time-course reading M105, Supplementary Fig. 47 source data
  Th-T fluorescence, mean of three wells: 3.041
time-course reading M106, Supplementary Fig. 47 source data
  Th-T fluorescence, mean of three wells: 3.028
time-course reading M107, Supplementary Fig. 47 source data
  Th-T fluorescence, mean of three wells: 3.025
time-course reading M108, Supplementary Fig. 47 source data
  Th-T fluorescence, mean of three wells: 3.028
time-course reading M109, Supplementary Fig. 47 source data
  Th-T fluorescence, mean of three wells: 3.032
time-course reading M110, Supplementary Fig. 47 source data
  Th-T fluorescence, mean of three wells: 3.022
time-course reading M111, Supplementary Fig. 47 source data
  Th-T fluorescence, mean of three wells: 3.062
time-course reading M112, Supplementary Fig. 47 source data
  Th-T fluorescence, mean of three wells: 3.021
time-course reading M113, Supplementary Fig. 47 source data
  Th-T fluorescence, mean of three wells: 3.021
time-course reading M114, Supplementary Fig. 47 source data
  Th-T fluorescence, mean of three wells: 3.0544
time-course reading M115, Supplementary Fig. 47 source data
  Th-T fluorescence, mean of three wells: 3.028
time-course reading M116, Supplementary Fig. 47 source data
  Th-T fluorescence, mean of three wells: 3.017
